Results on five molecules are retold here after publication PMC3762585 (Chemical & pharmaceutical bulletin, 2012).

Read-outs that look alike come from different tables or passages of the source. Where only a bound is given, the exact number is not on record here.

For data set [1], the system named is JMAR, MDA-1986, B16F10, SKMEL-28 and MRC-5 cells. Put plainly: MTS viability. It counts as cell-based. The settings on record: for anti-proliferative activity (cytotoxic effect): tested with a concentration of 20 μM, all five cell lines; for IC50: read-out: IC50 values, range over the cells tested.
A short description of a further data set: in vitro. The following applies: human.
Data set [2] deals with SKMEL-28. Put plainly: MTS viability. The settings on record: Homo sapiens, SK-MEL-28, read-out: Cytotoxicity IC50 SKMEL-28.
In data set [3] the test system is B16F10. Put plainly: MTS viability. The settings on record: Mus musculus, B16-F10, read-out: Cytotoxicity IC50 B16F10.
Data set [4] concerns MDA-1986. Briefly: MTS viability. The settings on record: Homo sapiens, MDA1986, read-out: Cytotoxicity IC50 MDA-1986.
In data set [5] the test system is JMAR. Put plainly: MTS viability. The settings on record: Homo sapiens, read-out: Cytotoxicity IC50 JMAR.
The test system of data set [6] is SKMEL-28.
Data set [7] has as its system MDA-1986.
Data set [8] concerns JMAR.
The subject of data set [9] is B16F10.

For the molecule “19-hydroxy viscosalactone B [Withalongolide P 2]”, in data set [1], the “anti-proliferative activity (cytotoxic effect)” value is “inactive”.
With `CC1=C(CO)C(=O)O[C@@H]([C@@H](C)[C@H]2CC[C@H]3[C@@H]4C[C@H]5O[C@]56[C@@H](O)C=CC(=O)[C@]6(C)[C@H]4CC[C@]23C)C1` [Withaferin A 6, withaferin A], the IC50 (as a rule, the point on the concentration scale where inhibition reaches its midpoint) is 320 ± 60 nM in “in vitro”; 3500 ± 150 nM in the data set on SKMEL-28 [2]; 270 ± 40 nM in the data set on B16F10 [3]; 860 ± 250 nM in the data set with MDA-1986 [4]; 150 to 12700 nM in data set [1].
Consider `CC1=C(C)C(=O)O[C@@H]([C@@H](C)[C@H]2CC[C@H]3[C@@H]4C[C@H]5O[C@]56[C@@H](O)C=CC(=O)[C@]6(CO)[C@H]4CC[C@]23C)C1` [Withalongolide B 5, withalongolide B], for which the IC50 was 380 ± 30 nM in “in vitro”; 3300 ± 480 nM in the data set on SKMEL-28 [2]; 250 ± 140 nM in the data set with JMAR [5]; 260 ± 70 nM in the data set on B16F10 [3]; 1700 ± 80 nM in the data set on MDA-1986 [4]; 150 to 12700 nM in data set [1].
In the case of `CC1=C(CO)C(=O)O[C@@H]([C@@H](C)[C@H]2CC[C@H]3[C@@H]4C[C@H]5O[C@]56[C@@H](O)[C@@H](O)CC(=O)[C@]6(C)[C@H]4CC[C@]23C)C1` [viscosalactone B 3, viscosalactone B], the IC50 in “in vitro”, in the data set on SKMEL-28 [2], with JMAR [5], with B16F10 [3] and with MDA-1986 [4] was above 20000 nM throughout. Further, the “anti-proliferative activity (cytotoxic effect)” value in [1] was “inactive”.
As to “Withalongolide O 4,7-Diacetate [Withalongolide O 4,7-diacetate 1a]”, the IC50 with SKMEL-28 [6] turned out to be 180 ± 30 nM; in the data set with MDA-1986 [7], 540 ± 70 nM; in the data set on MRC-5, 530 ± 120 nM; in the data set with JMAR [8] it was 830 ± 140 nM; with B16F10 [9] it was 690 ± 140 nM.
